# According to BindingDB's records for doi:10.7270/Q25719HD (The Scripps Research Institute Molecular Screening Center, 2010):
# Molecular target: T1, Cytochrome b-245 heavy chain (Homo sapiens, UniProt P04839)
# T1 sequence (P04839 whole entry): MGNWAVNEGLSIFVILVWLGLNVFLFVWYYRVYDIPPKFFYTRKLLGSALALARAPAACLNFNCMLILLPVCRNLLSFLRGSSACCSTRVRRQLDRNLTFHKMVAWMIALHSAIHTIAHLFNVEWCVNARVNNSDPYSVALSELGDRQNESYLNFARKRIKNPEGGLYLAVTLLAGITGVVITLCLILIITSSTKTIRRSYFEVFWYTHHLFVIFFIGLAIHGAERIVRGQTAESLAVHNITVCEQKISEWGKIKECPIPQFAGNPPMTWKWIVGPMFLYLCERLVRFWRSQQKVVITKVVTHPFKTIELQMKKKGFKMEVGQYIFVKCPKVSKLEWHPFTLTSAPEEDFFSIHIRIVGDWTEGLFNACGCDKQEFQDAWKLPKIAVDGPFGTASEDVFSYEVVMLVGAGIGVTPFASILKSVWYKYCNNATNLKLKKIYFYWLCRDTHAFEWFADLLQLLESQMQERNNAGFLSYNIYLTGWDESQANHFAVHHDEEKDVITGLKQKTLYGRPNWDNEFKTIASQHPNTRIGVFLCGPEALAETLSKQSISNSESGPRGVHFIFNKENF
# Assay: PubChem AID 435013
row,IC50 [µM],Structure (SMILES)
1,> 50,"Oc1c(Br)cc(CN=Nc2c(Cl)cncc2Cl)cc1Br [4-[[2-[3,5-bis(chloranyl)pyridin-4-yl]hydrazinyl]methylidene]-2,6-bis(bromanyl)cyclohexa-2,5-dien-1-one]"
2,> 10,CN(C)c1ccc(CN=Nc2c(Cl)cncc2Cl)cc1
